Patent US20240182503A1, “MACROCYCLE COMPLEMENT FACTOR B INHIBITORS” (priority 2021, published 2024)

biological target: CVF-Bb complex (Homo sapiens (Human), UniProt P00751); assay: biochemical; assay type: biochemical; details: not given
Description: CVF-Bb complex, prepared from purified cobra venom factor, (3 nM) is incubated with a compound of the disclosure at various concentrations for 10 minutes at room temperature in PBS (pH 7.4) containing 10 mM MgCl2 and 0.05% (w/v) CHAPS. Human Complement C3 substrate is added to a final concentration of 1 μM. After 1 hour incubation at room temperature, the enzyme reaction is stopped by addition of a cocktail of concentrated pan-protease inhibitors. The product of the reaction, C3a, is quantified by means of an enzyme-linked-immunosorbent assay and/or denaturing gel electrophoresis (SDS-PAGE). IC50 values are calculated from percentage of inhibition of CVF-Bb activity as a function of test compound concentration.

Compound | IC50
CCO[C@H]1CCN(Cc2c(OC)cc(C)c3[nH]ccc23)[C@H](c2ccc(C(=O)NS(=O)(=O)CC)cc2)C1 [Ex. 44, 4-((2S,4S)-4-ethoxy-1-((5-methoxy-7-methyl-1H-indol-4-yl)methyl)piperidin-2-yl)-N-(ethylsulfonyl)benzamide] | 138 nM
COc1cc(C)c2[nH]ccc2c1CN1CC[C@H]2C[C@H]1c1ccc(C(=O)O)cc1/C=C/CCCCCO2 [Ex. 36, (1^2R,1^4R,E)-1^1-((5-methoxy-7-methyl-1H-indol-4-yl)methyl)-10-oxa-1(2,4)-piperidina-2(1,2)-benzenacyclodecaphan-3-ene-2^4-carboxylic acid] | 241 nM
Cc1cc2c(c3cc[nH]c13)CN1CC[C@@H](C[C@H]1c1ccc(C(=O)O)cc1)OCCCCCCCCO2 [Ex. 35, 4-((3^2R,3^4R)-1^7-methyl-11H-4,13-dioxa-1(4,5)-indola-3(1,4)-piperidinacyclotridecaphane-3^2-yl)benzoic acid] | > 10000 nM
CCO[C@H]1CCN(Cc2c(OC)cc(C)c3[nH]ccc23)[C@H](c2ccc(C(=O)O)cc2OCCNC(C)=O)C1 [Ex. 6, 3-(2-acetamidoethoxy)-4-((2S,4S)-4-ethoxy-1-((5-methoxy-7-methyl-1H-indol-4-yl)methyl)piperidin-2-yl)benzoic acid] | 313 nM
COc1cc(C)c2[nH]ccc2c1CN1CC[C@H]2C[C@H]1c1ccc(C(=O)NS(=O)(=O)C3(C)CC3)cc1OCCCCCCO2 [Ex. 46] | 311 nM
COc1cc(C)c2[nH]ccc2c1CN1CC[C@H]2C[C@H]1c1ccc(C(=O)O)cc1CCCCCCCCO2 [Ex. 41, (1^2R,1^4R)-1^1-((5-methoxy-7-methyl-1H-indol-4-yl)methyl)-11-oxa-1(2,4)-piperidina-2(1,2)-benzenacycloundecaphane-2^4-carboxylic acid] | 129 nM
COc1cc(C)c2[nH]ccc2c1CN1CC[C@H]2C[C@H]1c1ccc(C(=O)NS(C)(=O)=O)cc1OCCCCCO2 [Ex. 40, (1^2R,1^4R)-1^1-((5-methoxy-7-methyl-1H-indol-4-yl)methyl)-N-(methylsulfonyl)-3,9-dioxa-1(2,4)-piperidina-2(1,2)-benzenacyclononaphane-2^4-carboxamide] | 309 nM
CCO[C@H]1CCN2Cc3c(cc(C)c4[nH]ccc34)OCCCCCCCCOc3cc(C(=O)O)ccc3[C@@H]2C1 [Ex. 30, (19bS,21S)-21-ethoxy-4-methyl-7,8,9,10,11,12,13,14,19b,20,21,22,23,25-tetradecahydro-3H-benzo[7,8]pyrido[1′,2′:5,6][1,9,5]dioxaazacyclo-heptadecino[3,2-e]indole-1^7-carboxylic acid] | 4910 nM

same assay, conditions: inhibition of CVF-Bb activity (3 nM CVF-Bb, Human Complement C3 substrate 1 μM, C3a quantified), PBS pH 7.4; read-out: IC50

Compound | IC50
COc1cc(C)c2[nH]ccc2c1CN1CC[C@H]2C[C@H]1c1ccc(C(=O)NS(C)(=O)=O)c3ccc(cc13)OCCC/C=C/CO2 [Ex. 54, (1^2S,1^4S,E)-1^1-((5-methoxy-7-methyl-1H-indol-4-yl)methyl)-N-(methylsulfonyl)-3,10-dioxa-1(2,4)-piperidina-2(1,7)-naphthalenacyclodecaphan-7-ene-2^4-carboxamide] | 303 nM

same assay, conditions: read-out: IC50

Compound | IC50
CCS(=O)(=O)NC(=O)c1ccc2c(c1)OCCCCCO[C@H]1CCN(Cc3c(OC)cc(C)c4[nH]ccc34)[C@H]2C1 [Ex. 59, (1^2S,1^4S)—N-(ethylsulfonyl)-1^1-((5-methoxy-7-methyl-1H-indol-4-yl)methyl)-3,9-dioxa-1(2,4)-piperidina-2(1,2)-benzenacyclononaphane-2^4-carboxamide] | 244 nM
COc1cc(C)c2[nH]ccc2c1CN1CC[C@H]2C[C@H]1c1ccc(C(=O)NS(=O)(=O)C3CC3)cc1OCCCCCO2 [Ex. 60, (1^2S,1^4S)—N-(cyclopropylsulfonyl)-1^1-((5-methoxy-7-methyl-1H-indol-4-yl)methyl)-3,9-dioxa-1(2,4)-piperidina-2(1,2)-benzenacyclononaphane-2^4-carboxamide] | 231 nM
COc1cc(C)c2[nH]ccc2c1CN1CC[C@H]2C[C@H]1c1ccc(C(=O)NS(C)(=O)=O)cc1/C=C/CCCCCCO2 [Ex. 58, (1^2S,1^4S, E)-1^1-((5-methoxy-7-methyl-1H-indol-4-yl)methyl)-N-(methylsulfonyl)-11-oxa-1(2,4)-piperidina-2(1,2)-benzenacycloundecaphan-3-ene-2^4-carboxamide] | 1060 nM
COc1cc(C)c2[nH]ccc2c1CN1CC[C@H]2C[C@H]1c1ccc(-c3ccn[nH]3)cc1OCCCCCCO2 [Ex. 55, (1^2S,1^4S)-1^1-((5-methoxy-7-methyl-1H-indol-4-yl)methyl)-2^4-(1H-pyrazol-5-yl)-3,10-dioxa-1(2,4)-piperidina-2(1,2)-benzenacyclodecaphane] | 2890 nM
COc1cc(C)c2c(ccn2C(=O)OC(C)(C)C)c1CN1CC[C@@H]2C[C@@H]1c1ccc(C(=O)O)c3ccc(cc13)OCCC/C=C/CO2 [Ex. 51, (1^2R,1^4R,E)-1^1-((1-(tert-butoxycarbonyl)-5-methoxy-7-methyl-1H-indol-4-yl)methyl)-3,10-dioxa-1(2,4)-piperidina-2(1,7)-naphthalenacyclodecaphan-7-ene-2^4-carboxylic acid] | > 10000 nM
COc1cc(C)c2[nH]ccc2c1CN1CC[C@H]2C[C@H]1c1ccc(C(=O)O)cc1OCCCCCCCO2 [Ex. 7, (1^2S,1^4S)_1^1-((5-methoxy-7-methyl-1H-indol-4-yl)methyl)-3,11-dioxa-1(2,4)-piperidina-2(1,2)-benzenacycloundecaphane-2^4-carboxylic acid] | 384 nM
COc1cc(C)c2[nH]ccc2c1CN1CC[C@H]2C[C@H]1c1ccc(C(=O)O)c3ccc(cc13)OCCC/C=C/CO2 [Ex. 48, (1^2S,1^4S,E)-1^1-((5-methoxy-7-methyl-1H-indol-4-yl)methyl)-3,10-dioxa-1(2,4)-piperidina-2(1,7)-naphthalenacyclodecaphan-7-ene-2^4-carboxylic acid] | 83.7 nM
COc1cc(C)c2[nH]ccc2c1CN1CC[C@H]2C[C@H]1c1ccc(C(=O)O)cc1OCCCn1cc(nn1)CO2 [Ex. 13, (2^2S,2^4S,Z)-2^1-((5-methoxy-7-methyl-1H-indol-4-yl)methyl)-5′H-3,9-dioxa-2(2,4)-piperidina-5(4,1)-triazola-1(1,2)-benzenacyclononaphane-1^4-carboxylic acid] | 1110 nM
COc1cc(C)c2[nH]ccc2c1CN1CC[C@H]2C[C@H]1c1ccc(C(=O)O)cc1/C=C/CCCCCCCO2 [Ex. 64, (1^2S,1^4S,E)-1^1-((5-methoxy-7-methyl-1H-indol-4-yl)methyl)-12-oxa-1(2,4)-piperidina-2(1,2)-benzenacyclododecaphan-3-ene-2^4-carboxylic acid] | 127 nM
COc1cc(C)c2[nH]ccc2c1CN1CC[C@H]2C[C@H]1c1ccc(C(=O)O)cc1OCCCC/C=C\CO2 [Ex. 10, (1^2S,1^4S,Z)-1^1-((5-methoxy-7-methyl-1H-indol-4-yl)methyl)-3,11-dioxa-1(2,4)-piperidina-2(1,2)-benzenacycloundecaphan-8-ene-2^4-carboxylic acid] | 384 nM
COc1cc(C)c2[nH]ccc2c1CN1CC[C@H]2C[C@H]1c1ccc(C(=O)O)c3ccc(cc13)OCCCCCCO2 [Ex. 49, (1^2S,14S)-1^1-((5-methoxy-7-methyl-1H-indol-4-yl)methyl)-3,10-dioxa-1(2,4)-piperidina-2(1,7)-naphthalenacyclodecaphane-2^4-carboxylic acid] | 208 nM
COc1cc(C)c2[nH]ccc2c1CN1CC[C@H]2C[C@H]1c1ccc(C(=O)NS(=O)(=O)c3ccccc3)cc1OCCCCCCO2 [Ex. 57, (1^2S,1^4S)-1^1-((5-methoxy-7-methyl-1H-indol-4-yl)methyl)-N-(phenylsulfonyl)-3,10-dioxa-1(2,4)-piperidina-2(1,2)-benzenacyclodecaphane-2^4-carboxamide] | 153 nM
COc1cc(C)c2[nH]ccc2c1CN1CC[C@H]2C[C@H]1c1ccc(C(=O)O)cc1CCCCCCCCCO2 [Ex. 72, (1^2S,1^4S)-1^1-((5-methoxy-7-methyl-1H-indol-4-yl)methyl)-12-oxa-1(2,4)-piperidina-2(1,2)-benzenacyclododecaphane-2^4-carboxylic acid] | 129 nM

system: not given; assay: not given; details: from C=CCCCCOc1cc(C(=O)OC)ccc1[C@@H]1C[C@@H](OCC=C)CCN1C(=O)OC(C)(C)C; rcm bond; 14-membered ring; Grubbs I (20 mol%); DCM; 2.15 mM; 25.0 °C; 18.0 h

Compound | ring closure, isolated yield
COC(=O)c1ccc2c(c1)OCCCCC=CCO[C@H]1CCN(C(=O)OC(C)(C)C)[C@H]2C1 | 72.4%

same assay, conditions: from C=CCCCCOc1cc(C(=O)OC)ccc1[C@@H]1C[C@@H](OCC=C)CCN1C(=O)OC(C)(C)C; rcm bond; 14-membered ring; Grubbs I (20 mol%); DCM; 2.17 mM; 25.0 °C; 18.0 h

Compound | ring closure, isolated yield
COC(=O)c1ccc2c(c1)OCCCCC=CCO[C@H]1CCN(C(=O)OC(C)(C)C)[C@H]2C1 | 83.2%

same assay, conditions: from C=CCCCOc1ccc2c(C(=O)OC)ccc([C@@H]3C[C@@H](OCC=C)CCN3C(=O)OC(C)(C)C)c2c1; rcm bond; 15-membered ring; Grubbs I; DCM; 1.95 mM; 25.0 °C; 18.0 h

Compound | ring closure, isolated yield
COC(=O)c1ccc2c3cc(ccc13)OCCCC=CCO[C@H]1CCN(C(=O)OC(C)(C)C)[C@H]2C1 | 75.3%

same assay, conditions: from C=CCCCOc1ccc2c(C(=O)OC)ccc([C@@H]3C[C@@H](OCC=C)CCN3C(=O)OC(C)(C)C)c2c1; rcm bond; 15-membered ring; Grubbs I; DCM; 2.0 mM; 25.0 °C; 18.0 h

Compound | ring closure, isolated yield
COC(=O)c1ccc2c3cc(ccc13)OCCCC=CCO[C@H]1CCN(C(=O)OC(C)(C)C)[C@H]2C1 | 22.7%

same assay, conditions: from C=CCCCOc1ccc2c(C(=O)OC)ccc([C@H]3C[C@H](OCC=C)CCN3C(=O)OC(C)(C)C)c2c1; rcm bond; 15-membered ring; Grubbs I; DCM; 1.96 mM; 25.0 °C; 18.0 h

Compound | ring closure, isolated yield
COC(=O)c1ccc2c3cc(ccc13)OCCCC=CCO[C@@H]1CCN(C(=O)OC(C)(C)C)[C@@H]2C1 | 74%

same assay, conditions: from C=CCOc1ccc2c(C(=O)OC)ccc([C@@H]3C[C@@H](OCC=C)CCN3C(=O)OC(C)(C)C)c2c1; rcm bond; 13-membered ring; Grubbs I; DCM; 2.1 mM; 25.0 °C; 18.0 h

Compound | ring closure, isolated yield
COC(=O)c1ccc2c3cc(ccc13)OCC=CCO[C@H]1CCN(C(=O)OC(C)(C)C)[C@H]2C1 | 67.1%
